Results taken from PubChem BioAssay (NCI).
Values joined by “and” are separate entries in the source; they are usually repeats but may differ in a detail not shown here. Identical values can stand only once.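 Tested at 5 concentrations; 48 h exposure; 96-well plates; endpoints linearly interpolated, else capped at highest concentration. GI50 marks 50% less growth. Definition used: TGI = concentration required for complete inhibition of growth.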 Where a SMILES comes first, the peptide text is derived from it. [ ]: non-standard residue; d: D form. The star is where a group is joined. ξ: configuration not given here. NMeF = CN[C@@H](Cc1ccccc1)C(=O)O; NMeN = CN[C@@H](CC(N)=O)C(=O)O; NMeV = CN[C@H](C(=O)O)C(C)C; ξNMeV = CNC(C(=O)O)C(C)C; Boc = CC(C)(C)OC(=O)*; ξNMeA = CNC(C)C(=O)O; ξV = CC(C)C(N)C(=O)O

How the values were obtained:
Test in all cases: DTP human tumour cell line panel, 48 h
786-0 renal = tested on: 786-0 renal
A498 renal = tested on: A498 renal
A549 NSCLC = tested on: A549 NSCLC
ACHN renal = tested on: ACHN renal
BT-549 breast = tested on: BT-549 breast
CAKI-1 renal = tested on: CAKI-1 renal
CCRF-CEM leukemia = tested on: CCRF-CEM leukemia
COLO 205 colon = tested on: COLO 205 colon
DLD-1 colon = tested on: DLD-1 colon
DMS 114 small cell lung = tested on: DMS 114 small cell lung
DMS 273 small cell lung = tested on: DMS 273 small cell lung
DU-145 prostate = tested on: DU-145 prostate
EKVX NSCLC = tested on: EKVX NSCLC
HCC-2998 colon = tested on: HCC-2998 colon
HCT-116 colon = tested on: HCT-116 colon
HCT-15 colon = tested on: HCT-15 colon
HL-60(TB) leukemia = tested on: HL-60(TB) leukemia
HOP-62 NSCLC = tested on: HOP-62 NSCLC
HOP-92 NSCLC = tested on: HOP-92 NSCLC
HS 578T breast = tested on: HS 578T breast
HT29 colon = tested on: HT29 colon
IGROV1 ovarian = tested on: IGROV1 ovarian
K-562 leukemia = tested on: K-562 leukemia
KM12 colon = tested on: KM12 colon
KM20L2 colon = tested on: KM20L2 colon
LOX IMVI melanoma = tested on: LOX IMVI melanoma
LXFL 529 NSCLC = tested on: LXFL 529 NSCLC
M14 melanoma = tested on: M14 melanoma
MALME-3M melanoma = tested on: MALME-3M melanoma
MCF7 breast = tested on: MCF7 breast
MDA-MB-231 breast = tested on: MDA-MB-231 breast
MDA-MB-435 = tested on: MDA-MB-435
MDA-N = tested on: MDA-N
MOLT-4 leukemia = tested on: MOLT-4 leukemia
NCI-H226 lung = tested on: NCI-H226 lung
NCI-H23 lung = tested on: NCI-H23 lung
NCI-H460 lung = tested on: NCI-H460 lung
NCI-H522 lung = tested on: NCI-H522 lung
NCI/ADR-RES ovarian = tested on: NCI/ADR-RES ovarian
OVCAR-3 ovarian = tested on: OVCAR-3 ovarian
OVCAR-4 ovarian = tested on: OVCAR-4 ovarian
OVCAR-5 ovarian = tested on: OVCAR-5 ovarian
OVCAR-8 ovarian = tested on: OVCAR-8 ovarian
PC-3 prostate = tested on: PC-3 prostate
RPMI-8226 leukemia = tested on: RPMI-8226 leukemia
RXF 393 renal = tested on: RXF 393 renal
SF-268 CNS = tested on: SF-268 CNS
SF-295 CNS = tested on: SF-295 CNS
SF-539 CNS = tested on: SF-539 CNS
SK-MEL-2 melanoma = tested on: SK-MEL-2 melanoma
SK-MEL-28 melanoma = tested on: SK-MEL-28 melanoma
SK-MEL-5 melanoma = tested on: SK-MEL-5 melanoma
SK-OV-3 ovarian = tested on: SK-OV-3 ovarian
SN12C renal = tested on: SN12C renal
SNB-19 CNS = tested on: SNB-19 CNS
SNB-75 CNS = tested on: SNB-75 CNS
SNB-78 CNS = tested on: SNB-78 CNS
SR leukemia = tested on: SR leukemia
SW-620 colon = tested on: SW-620 colon
T-47D breast = tested on: T-47D breast
TK-10 renal = tested on: TK-10 renal
U251 CNS = tested on: U251 CNS
UACC-257 melanoma = tested on: UACC-257 melanoma
UACC-62 melanoma = tested on: UACC-62 melanoma
UO-31 renal = tested on: UO-31 renal
XF 498 CNS = tested on: XF 498 CNS

## COC(=O)C(C)N(C)C(=O)[C@H](CC(N)=O)N(C)C(=O)[C@@H]1CCCN1C(=O)[C@H](C(C)C)N(C)C(=O)C(C(C)C)N(C)C(=O)[C@H](Cc1ccccc1)N(C)C(=O)C(NC(=O)OC(C)(C)C)C(C)C (stereo partly specified) (Boc-[ξV][NMeF][ξNMeV][NMeV]P[NMeN][ξNMeA]-OMe)
786-0 renal
  GI50: 29.7 µM
  TGI: 50 µM and > 100 µM
A498 renal
  GI50: 21.9 µM
  TGI: 50 µM and 67 µM
A549 NSCLC
  GI50: > 100 µM
  TGI: > 100 µM
ACHN renal
  GI50: > 100 µM
  TGI: > 100 µM
BT-549 breast
  TGI: 32.3 µM
CAKI-1 renal
  GI50: 26.9 µM
  TGI: > 50 µM and 55.3 µM
CCRF-CEM leukemia
  GI50: 10.8 µM
  TGI: 50 µM and 33.1 µM
COLO 205 colon
  GI50: 17.5 µM
  TGI: 50 µM and 35.6 µM
DLD-1 colon
  TGI: 31.8 µM
DMS 114 small cell lung
  TGI: 17.1 µM
DMS 273 small cell lung
  TGI: 28.9 µM
DU-145 prostate
  TGI: 50 µM
EKVX NSCLC
  GI50: 23.7 µM
  TGI: > 50 µM and 61.5 µM
HCC-2998 colon
  GI50: 16.7 µM
  TGI: 50 µM and 31.1 µM
HCT-116 colon
  TGI: 50 µM and 31.1 µM
HCT-15 colon
  GI50: 29.8 µM
  TGI: 50 µM and > 100 µM
HL-60(TB) leukemia
  GI50: 4.54 µM
  TGI: 44.7 µM and 17.4 µM
HOP-62 NSCLC
  GI50: 19.1 µM
  TGI: 31.5 µM and 38.8 µM
HOP-92 NSCLC
  GI50: 14.6 µM
  TGI: 50 µM and 27.8 µM
HS 578T breast
  TGI: 23.6 µM
HT29 colon
  GI50: 23.4 µM
  TGI: 50 µM and 57.7 µM
IGROV1 ovarian
  GI50: 16.2 µM
  TGI: 50 µM and 29.8 µM
K-562 leukemia
  GI50: 21 µM
  TGI: 50 µM and 57.2 µM
KM12 colon
  GI50: 18.8 µM
  TGI: 22.8 µM and 37.3 µM
KM20L2 colon
  TGI: > 100 µM
LOX IMVI melanoma
  GI50: 3.1 µM
  TGI: 20.7 µM and 19.2 µM
LXFL 529 NSCLC
  TGI: 10.3 µM
M14 melanoma
  TGI: 50 µM and 30.6 µM
MALME-3M melanoma
  TGI: 32.5 µM
MCF7 breast
  TGI: 50 µM
MDA-MB-231 breast
  TGI: 50 µM
MDA-MB-435
  TGI: 50 µM
MDA-N
  TGI: 50 µM
MOLT-4 leukemia
  GI50: 11.1 µM
  TGI: 21.5 µM and 33.6 µM
NCI-H226 lung
  GI50: 20.8 µM
  TGI: 40.2 µM and 36.6 µM
NCI-H23 lung
  GI50: 20.4 µM
  TGI: 50 µM and 40.4 µM
NCI-H460 lung
  GI50: 17.4 µM
  TGI: 50 µM and 39 µM
NCI-H522 lung
  TGI: 50 µM and 29.8 µM
NCI/ADR-RES ovarian
  TGI: > 50 µM
OVCAR-3 ovarian
  GI50: 17.1 µM
  TGI: 50 µM and 31.2 µM
OVCAR-4 ovarian
  GI50: 31.1 µM
  TGI: > 50 µM and 87.5 µM
OVCAR-5 ovarian
  GI50: 97.2 µM
  TGI: > 100 µM
OVCAR-8 ovarian
  TGI: 31.3 µM
PC-3 prostate
  TGI: 50 µM
RPMI-8226 leukemia
  TGI: 41.9 µM
RXF 393 renal
  TGI: 29.8 µM
SF-268 CNS
  GI50: 15.6 µM
  TGI: 50 µM and 29 µM
SF-295 CNS
  GI50: 32.8 µM
  TGI: 26.3 µM and > 100 µM
SF-539 CNS
  GI50: 18.1 µM
  TGI: 50 µM and 32.4 µM
SK-MEL-2 melanoma
  TGI: 20.1 µM and 22.9 µM
SK-MEL-28 melanoma
  TGI: 50 µM and 30.5 µM
SK-MEL-5 melanoma
  GI50: 15.2 µM
  TGI: 50 µM and 28.5 µM
SK-OV-3 ovarian
  GI50: 29.4 µM
  TGI: 50 µM and > 100 µM
SN12C renal
  GI50: 17.4 µM
  TGI: 50 µM and 33.5 µM
SNB-19 CNS
  GI50: 16.9 µM
  TGI: 50 µM and 30.8 µM
SNB-75 CNS
  GI50: 17.2 µM
  TGI: 21.1 µM and 31.9 µM
SNB-78 CNS
  TGI: 40.4 µM
SR leukemia
  GI50: 0.005 µM
  TGI: 50 µM and 21.6 µM
SW-620 colon
  GI50: 13 µM
  TGI: 50 µM and 25.7 µM
T-47D breast
  TGI: 50 µM
TK-10 renal
  GI50: 18.4 µM
  TGI: 50 µM and 51.8 µM
U251 CNS
  GI50: 16.9 µM
  TGI: 23 µM and 30.5 µM
UACC-257 melanoma
  GI50: 19.4 µM
  TGI: 50 µM and 39.4 µM
UACC-62 melanoma
  GI50: 17.5 µM
  TGI: 20.3 µM and 36.8 µM
UO-31 renal
  GI50: 17.3 µM
  TGI: 50 µM and 31.1 µM
XF 498 CNS
  TGI: 28.9 µM
